Starred links: 1 amine or outer side, 2 acyl side, 3 side chain; linkers in the order of their positions; H or OH if unused. Non-standard residues stand in square brackets, D forms with d. Residues, ends and D or L forms follow the SMILES beside them. Groups on a side chain read outwards from the residue. εLys = N[C@@H](CCCCN[*:1])C(=O)[*:2]; Dab = NCC[C@H](N)C(=O)O
Legend:
Format in all cases: functional
[1] = system: Staphylococcus aureus; assay: Antimicrobial activity against multidrug resistant Staphylococcus aureus assessed as inhibition of visible microbial growth incubated for 18 hrs by broth microdilution method
[2] = system: Staphylococcus aureus; assay: Antimicrobial activity against Staphylococcus aureus ATCC 29213 assessed as inhibition of visible microbial growth incubated for 18 hrs by broth microdilution method
[3] = system: Escherichia coli; assay: Antimicrobial activity against Escherichia coli ATCC 25922 assessed as inhibition of visible microbial growth incubated for 18 hrs by broth microdilution method
[4] = system: Acinetobacter baumannii; assay: Antimicrobial activity against multidrug resistant Acinetobacter baumannii assessed as inhibition of visible microbial growth incubated for 18 hrs by broth microdilution method
[5] = system: Escherichia coli; assay: Antimicrobial activity against multidrug resistant Escherichia coli assessed as inhibition of visible microbial growth incubated for 18 hrs by broth microdilution method
[6] = system: Pseudomonas aeruginosa; assay: Antimicrobial activity against multidrug resistant Pseudomonas aeruginosa assessed as inhibition of visible microbial growth incubated for 18 hrs by broth microdilution method

Row | Compound | MIC [1] | MIC [2] | MIC [3] | MIC [4] | MIC [5] | MIC [6]
1 | CC(C)C[C@H](NC(=O)CN)C(=O)N[C@@H](CCCNC(=N)N)C(=O)N[C@@H](CCCCN)C(=O)N[C@@H](Cc1c[nH]c2ccccc12)C(=O)N[C@@H](CC(C)C)C(=O)N[C@@H](CCCNC(=N)N)C(=O)N[C@@H](CCCCN)C(=O)N[C@@H](Cc1ccccc1)C(=O)N[C@@H](CCN)C(=O)N[C@@H](CCCCN)C(=O)N[C@@H](Cc1ccccc1)C(=O)N[C@@H](Cc1c[nH]c2ccccc12)C(=O)O (H-GLRKWLRKF[Dab]KFW-OH) | 18.1 µM | 18.1 µM | 9.1 µM | 4.5 µM | 4.5 µM | 4.5 µM
2 | CC(C)C[C@H](NC(=O)CN)C(=O)N[C@@H](CCCNC(=N)N)C(=O)N[C@@H](CCCCN)C(=O)N[C@@H](Cc1c[nH]c2ccccc12)C(=O)N[C@@H](CC(C)C)C(=O)N[C@@H](CCCNC(=N)N)C(=O)N[C@@H](CCCCN)C(=O)N[C@@H](Cc1ccccc1)C(=O)N[C@@H](CCN)C(=O)N[C@@H](CCN)C(=O)N[C@@H](Cc1ccccc1)C(=O)N[C@@H](Cc1c[nH]c2ccccc12)C(=O)O (H-GLRKWLRKF[Dab][Dab]FW-OH) | 9.2 µM | 18.4 µM | 9.2 µM | 4.6 µM | 9.2 µM | 4.6 µM
3 | CC(C)C[C@H](NC(=O)CN)C(=O)N[C@@H](CCCNC(=N)N)C(=O)NCCCC[C@H](N)C(=O)N[C@@H](Cc1c[nH]c2ccccc12)C(=O)N[C@@H](CC(C)C)C(=O)N[C@@H](CCCNC(=N)N)C(=O)N[C@@H](CCCCN)C(=O)N[C@@H](Cc1ccccc1)C(=O)N[C@@H](CCCCN)C(=O)N[C@@H](CCCCN)C(=O)N[C@@H](Cc1ccccc1)C(=O)N[C@@H](Cc1c[nH]c2ccccc12)C(=O)O (H-K([Arg-Leu-Gly])WLRKFKKFW-OH) | 35.7 µM | 35.7 µM | 8.9 µM | 35.7 µM | 35.7 µM | 8.9 µM
4 | CC(C)C[C@H](NC(=O)CN)C(=O)N[C@@H](CCCNC(=N)N)C(=O)N[C@@H](CCN)C(=O)N[C@@H](Cc1c[nH]c2ccccc12)C(=O)N[C@@H](CC(C)C)C(=O)N[C@@H](CCCNC(=N)N)C(=O)N[C@@H](CCCCN)C(=O)N[C@@H](Cc1ccccc1)C(=O)N[C@@H](CCCCN)C(=O)N[C@@H](CCCCN)C(=O)N[C@@H](Cc1ccccc1)C(=O)N[C@@H](Cc1c[nH]c2ccccc12)C(=O)O (H-GLR[Dab]WLRKFKKFW-OH) | 18.1 µM | 18.1 µM | 9.1 µM | 4.5 µM | 9.1 µM | 4.5 µM
5 | CC(C)C[C@H](NC(=O)CN)C(=O)N[C@@H](CCCNC(=N)N)C(=O)N[C@@H](CCCCN)C(=O)N[C@@H](Cc1c[nH]c2ccccc12)C(=O)N[C@@H](CC(C)C)C(=O)N[C@@H](CCCNC(=N)N)C(=O)NCCCC[C@H](N)C(=O)N[C@@H](Cc1ccccc1)C(=O)N[C@@H](CCCCN)C(=O)N[C@@H](CCCCN)C(=O)N[C@@H](Cc1ccccc1)C(=O)N[C@@H](Cc1c[nH]c2ccccc12)C(=O)O (H-GLRKWLR[εLys]FKKFW-OH) | 35.7 µM | 35.7 µM | 17.9 µM | 35.7 µM | 35.7 µM | 17.9 µM
6 | H-GLRKFLRKFKKFWK-OH | 34 µM | 34 µM | 8.5 µM | 8.5 µM | 17 µM | 17 µM
7 | H-GLRKWLRKFKKFWK-OH | 16.6 µM | 16.6 µM | 8.3 µM | 8.3 µM | 8.3 µM | 8.3 µM
8 | CC(C)C[C@H](NC(=O)CN)C(=O)N[C@@H](CCCNC(=N)N)C(=O)N[C@@H](CCCCN)C(=O)N[C@@H](Cc1c[nH]c2ccccc12)C(=O)N[C@@H](CC(C)C)C(=O)N[C@@H](CCCNC(=N)N)C(=O)N[C@@H](CCN)C(=O)N[C@@H](Cc1ccccc1)C(=O)N[C@@H](CCN)C(=O)N[C@@H](CCN)C(=O)N[C@@H](Cc1ccccc1)C(=O)N[C@@H](Cc1c[nH]c2ccccc12)C(=O)O (H-GLRKWLR[Dab]F[Dab][Dab]FW-OH) | 9.4 µM | 4.7 µM | 9.4 µM | 4.7 µM | 4.7 µM | 4.7 µM
9 | CC(C)C[C@H](NC(=O)CN)C(=O)N[C@@H](CCCNC(=N)N)C(=O)N[C@@H](CCCCN)C(=O)N[C@@H](Cc1c[nH]c2ccccc12)C(=O)N[C@@H](CC(C)C)C(=O)N[C@@H](CCCNC(=N)N)C(=O)N[C@@H](CCCCN)C(=O)N[C@@H](Cc1ccccc1)C(=O)N[C@@H](CCCCN)C(=O)N[C@@H](CCN)C(=O)N[C@@H](Cc1ccccc1)C(=O)N[C@@H](Cc1c[nH]c2ccccc12)C(=O)O (H-GLRKWLRKFK[Dab]FW-OH) | 18.1 µM | 9.1 µM | 9.1 µM | 4.5 µM | 4.5 µM | 4.5 µM
10 | H-GLRKRLRKFKKFGK-OH | > 72.7 µM | 72.7 µM | 72.7 µM | 72.7 µM | 72.7 µM | > 72.7 µM
11 | H-GLRKFLRKFKKFGK-OH | 73 µM | 36.5 µM | 18.2 µM | 36.5 µM | 36.5 µM | 73 µM
12 | CC(C)C[C@H](NC(=O)CN)C(=O)N[C@@H](CCCNC(=N)N)C(=O)N[C@H](CCCCN)C(=O)N[C@@H](Cc1c[nH]c2ccccc12)C(=O)N[C@@H](CC(C)C)C(=O)N[C@@H](CCCNC(=N)N)C(=O)N[C@@H](CCN)C(=O)N[C@@H](Cc1ccccc1)C(=O)N[C@@H](CCCCN)C(=O)N[C@@H](CCCCN)C(=O)N[C@@H](Cc1ccccc1)C(=O)N[C@@H](Cc1c[nH]c2ccccc12)C(=O)O | 18.1 µM | 18.1 µM | 18.1 µM | 4.5 µM | 9.1 µM | 4.5 µM
13 | CC(C)C[C@H](NC(=O)CN)C(=O)N[C@@H](CCCNC(=N)N)C(=O)N[C@@H](CCCCN)C(=O)N[C@@H](Cc1c[nH]c2ccccc12)C(=O)N[C@@H](CC(C)C)C(=O)N[C@@H](CCCNC(=N)N)C(=O)N[C@@H](CCCCN)C(=O)N[C@@H](Cc1ccccc1)C(=O)N[C@@H](CCCCN)C(=O)NCCCC[C@H](N)C(=O)N[C@@H](Cc1ccccc1)C(=O)N[C@@H](Cc1c[nH]c2ccccc12)C(=O)O (H-GLRKWLRKFK[εLys]FW-OH) | 17.9 µM | 17.9 µM | 4.5 µM | 17.9 µM | 35.7 µM | 8.9 µM
14 | CC(C)C[C@H](NC(=O)CN)C(=O)N[C@@H](CCCNC(=N)N)C(=O)N[C@@H](CCCCN)C(=O)N[C@@H](Cc1c[nH]c2ccccc12)C(=O)N[C@@H](CC(C)C)C(=O)N[C@@H](CCCNC(=N)N)C(=O)N[C@@H](CCCCN)C(=O)N[C@@H](Cc1ccccc1)C(=O)NCCCC[C@H](N)C(=O)N[C@@H](CCCCN)C(=O)N[C@@H](Cc1ccccc1)C(=O)N[C@@H](Cc1c[nH]c2ccccc12)C(=O)O (H-GLRKWLRKF[εLys]KFW-OH) | 17.9 µM | 17.9 µM | 8.9 µM | 17.9 µM | 35.7 µM | 8.9 µM

From ChEMBL document CHEMBL6134827, “The discovery of novel antimicrobial peptides against drug-resistant bacteria based on fragments fusion strategy” (Eur J Med Chem, 2025)
